The text below walks through data of EP4775208A1, “USE OF PRMT5 INHIBITOR IN TREATMENT OF TUMORS OR CANCERS” (Apeiron Therapeutics (Hong Kong) Ltd., priority 2023, dated 2025).

Bounds are passed on as bounds.

Type in all cases: cell-based
Assay [1] concerns LN18 MTAP-overexpressing cells. Put plainly: Inhibition of proliferation of LN18 MTAP-overexpressing cells (CellTiter-Glo). Particulars: cell proliferation, 7 days. The text has this:
Test 6: Assay for Inhibitory Activity of Compounds against LN18 MTAP-Overexpressing Cell Proliferatio
Materials and Cells: The LN18 MTAP-overexpressing cell line was purchased from Cobioer Biosciences (China). Cell culture media, fetal bovine serum (FBS), and penicillin-streptomycin were purchased from Thermo Fisher Scientific (USA). 384-well plates were purchased from PerkinElmer (USA). The CellTiter-Glo assay kit was purchased from Promega (USA).
Cell Culture: LN18 MTAP-overexpressing cells were cultured in a medium supplemented with 10% fetal bovine serum (FBS) and 1% penicillin-streptomycin at 37°C with 5% CO2. Only cells in the logarithmic growth phase were used for experiments.
(§1) Cell Proliferation Inhibition Assay: The antiproliferative activity of the compounds against LN18 MTAP-overexpressing cells was assessed using the CellTiter-Glo assay kit. Cell suspensions were adjusted to the appropriate density and seeded into 384-well plates at a volume of 40 µL per well, then incubated overnight at 37°C with 5% CO2. Compounds (40 nL) were added to each well to achieve final concentrations ranging from 0 to 10,000 nM (starting concentration 10,000 nM, 3-fold serial dilutions, 9 dose points), with a final DMSO concentration of 0.25%. The cell plates were incubated at 37°C with 5% CO2 for 7 days. Subsequently, 40 µL of CellTiter-Glo reagent was added to measure cell viability.

Another assay has as its system U87MG MTAP(-/-) cells. The experiment in a line: Inhibition of proliferation of U87MG MTAP(-/-) cells (CellTiter-Glo). Particulars: Homo sapiens, U-87 MG, 144 h, cell proliferation, 6 days. In outline: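 U87MG MTAP(-/-) cells in log phase, seeded overnight, then exposed 6 days at 37 °C, 5% CO2 to compound at 10,000 nM top, 3-fold dilutions, 10 points, 0.5% DMSO final. Viability read by CellTiter-Glo luminescence.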
On the technique in general: In ATP-based viability assays light output follows the ATP content of the culture.

The subject of the next assay is SW780. Put plainly: Mini cell panel: inhibition of proliferation of SW780 cells. The text has this: (§2) Test 9: Mini Cell Panel: Assay for Inhibitory Activity of Compounds against Proliferation of 20 Tumor Cell Lines
(§3) Materials and Cells: Fifteen MTAP(-/-) cell lines and five MTAP wild-type cell lines were purchased from ATCC (USA). Cell culture media, fetal bovine serum (FBS), and penicillin-streptomycin were purchased from Thermo Fisher Scientific (USA). 384-well plates were purchased from PerkinElmer (USA). The CellTiter-Glo assay kit was purchased from Promega (USA). Paclitaxel was used as the control compound.

In another assay the test system is MDA-MB-231. The experiment in a line: Mini cell panel: inhibition of proliferation of MDA-MB-231 cells.
From the text: as §2, §3

A further assay concerns MKN-45. The experiment in a line: Mini cell panel: inhibition of proliferation of MKN-45 cells.
From the text: as §2, §3

The next assay deals with ACHN. The experiment in a line: Mini cell panel: inhibition of proliferation of ACHN cells. Conditions: MTAP (-/-).
From the text: as §2, §3

The next assay relates to LU99. Put plainly: Mini cell panel: inhibition of proliferation of LU99 cells.
From the text: as §2, §3

The next assay concerns NCI-H647. The experiment in a line: Mini cell panel: inhibition of proliferation of NCI-H647 cells.
From the text: as §2, §3

Another assay relates to DOHH-2. Put plainly: Mini cell panel: inhibition of proliferation of DOHH-2 cells.
From the text: as §2, §3

The test system of another assay is PSN-1. Put plainly: Mini cell panel: inhibition of proliferation of PSN-1 cells.
From the text: as §2, §3

The next assay deals with Calu-1. The experiment in a line: Mini cell panel: inhibition of proliferation of Calu-1 cells.
From the text: as §2, §3

Another assay concerns SU-DHL-10. Put plainly: Mini cell panel: inhibition of proliferation of SU-DHL-10 cells.
From the text: as §2, §3

Another assay relates to Aspc-1. Put plainly: Mini cell panel: inhibition of proliferation of Aspc-1 cells.
From the text: as §2, §3

For assay [2], the system named is LU99 MTAP-overexpressing cells. The experiment in a line: Inhibition of proliferation of LU99 MTAP-overexpressing cells (CellTiter-Glo). Particulars: cell proliferation, 6 days. As for the experimental part:
Test 4: Assay for Inhibitory Activity of Compounds against LU99 MTAP-Overexpressing Cell Proliferation
Materials and Cells: The LU99 MTAP-overexpressing cell line was purchased from Cobioer Biosciences (China). Cell culture media and fetal bovine serum (FBS) were purchased from Thermo Fisher Scientific (USA). 384-well plates were purchased from PerkinElmer (USA). The CellTiter-Glo assay kit was purchased from Promega (USA).
Cell Culture: LU99 MTAP-overexpressing cells were cultured in a medium supplemented with 10% fetal bovine serum (FBS) at 37°C with 5% CO2. Only cells in the logarithmic growth phase were used for experiments.
as §1, with “against LU99” for “against LN18”, “nM, 2.5-fold” for “nM, 3-fold”, “dilutions, 10” for “dilutions, 9”, “of 0.2%.” for “of 0.25%.”, “for 6” for “for 7”

Where [3] appears, read: Homo sapiens, SW780, MTAP (-/-).
[4] abbreviates: Homo sapiens, MDA-MB-231, MTAP (-/-).
[5] abbreviates: Homo sapiens, MKN-45, MTAP (-/-).
Where [6] appears, read: Homo sapiens, Lu-99, MTAP (-/-).
Setting [7] is: Homo sapiens, NCI-H647, MTAP (-/-).
Where [8] appears, read: Homo sapiens, DOHH-2, MTAP (-/-).
The mark [9] stands for this setting: Homo sapiens, Calu-1, MTAP Wild type.
Setting [10] is: Homo sapiens, SU-DHL10, MTAP Wild type.
[11] abbreviates: Homo sapiens, ASPC1, MTAP Wild type.

For the molecule `CN(C(=O)c1cc2c(cn1)nc(N)c1cncn12)[C@@H]1COc2cc(C(F)(F)F)ccc21` [Example 4, (S)-4-amino-N-methy 1-N-(6-(trifluoromethy 1)-2,3-dihydrobenzofuran-3-yl)imidazo[1,5-a]pyrido[3,4-e]pyrazine-8-carboxamide], the half-inhibitory concentration (IC50) was 868 nM in assay [1] (Homo sapiens, LN-18, 168 h); 93.1 nM in the assay on U87MG MTAP(-/-) cells; 177 nM in the assay with SW780 (setting [3]); 955 nM with MDA-MB-231 (setting [4]); 17.8 nM in the assay with MKN-45 (setting [5]); 4.7 nM in the assay on ACHN (Homo sapiens, ACHN). Moreover, the IC50 stood at 21.8 nM in the assay on LU99 (setting [6]); 16 nM with NCI-H647 (setting [7]); 19.3 nM in the assay with DOHH-2 (setting [8]); 12.6 nM in the assay with PSN-1 (Homo sapiens, PSN1, MTAP (-/-)); 3370 nM in the assay with Calu-1 (setting [9]); 1300 nM with SU-DHL-10 (setting [10]). Besides, half-maximal inhibition with Aspc-1 (setting [11]) (IC50) was put at 6600 nM.

`[2H]C([2H])([2H])N(C(=O)c1ccc2nc(N)c3cncn3c2c1)[C@@H]1COc2cc(C(F)(F)F)ccc21` [Example 16, (S)-4-amino-N-(methyl-d3)-N-(6-(trifluoromethyl)-2,3-dihydrobenzofuran-3-yl)imidaz o[1,5-a]quinoxaline-8-carboxamide]: the IC50 in assay [2] (Homo sapiens, Lu-99, 144 h) stood at 2480 nM; in assay [1] (Homo sapiens, LN-18, 168 h), 1200 nM; in the assay on U87MG MTAP(-/-) cells it was 70.8 nM.

Take `[2H]C([2H])([2H])N(C(=O)c1cc2c(cc1F)nc(N)c1cncn12)[C@@H]1COc2cc(C(F)(F)F)ccc21` [Example 41, (S)-4-amino-7-fluoro-N-(methyl-d3)-N-(6-(trifluoromethyl)-2,3-di hydrobenzofuran-3-yl)imidazo[1,5-a]quinox aline-8-carboxamide]: the IC50 turned out to be 1640 nM in assay [2] (Homo sapiens, Lu-99, 144 h); 1970 nM in assay [1] (Homo sapiens, LN-18, 168 h); 58.5 nM with U87MG MTAP(-/-) cells.

For the molecule `CN(C(=O)c1ccc2nc(N)c3cncn3c2c1)[C@@H]1COc2cc(C(F)(F)F)ccc21` [Example 107, (S)-4-amino-N-methy 1-N-(6-(trifluoromethy 1)-2,3-dihydrobenzofuran-3-yl)imidazo[1,5-a]quinoxaline-8-carboxamide], the IC50 in assay [2] (Homo sapiens, Lu-99, 144 h) came out at 2360 nM; in assay [1] (Homo sapiens, LN-18, 168 h) it was 1370 nM; in the assay on U87MG MTAP(-/-) cells it was 111 nM; in the assay with SW780 (setting [3]) it was 210 nM; with MDA-MB-231 (setting [4]) it was 2060 nM; in the assay with MKN-45 (setting [5]), 43.1 nM. In addition, the IC50 with ACHN (Homo sapiens, ACHN) is 2.7 nM; in the assay with LU99 (setting [6]), 39.6 nM; with NCI-H647 (setting [7]) it was 30 nM; in the assay with DOHH-2 (setting [8]), 33.2 nM; with PSN-1 (Homo sapiens, PSN1, MTAP (-/-)) it was 30.9 nM; with Calu-1 (setting [9]), more than 10000 nM. The IC50 in the assay with SU-DHL-10 (setting [10]) was 1700 nM; in the assay on Aspc-1 (setting [11]) it was more than 10000 nM.

For the molecule “(S)-4-amino-7-fluoro-N-methyl-N-(6-(triflu oromethyl)-2,3-dihydr obenzofuran-3-yl)imi dazo[1,5-a]quinoxalin e-8-carboxamide [Example 29]”, the IC50 was 1490 nM in [2]; 812 nM in assay [1]; 660 nM in the assay on SW780 (MTAP (-/-)); 390 nM with MDA-MB-231 (MTAP (-/-)); 39.8 nM with MKN-45 (MTAP (-/-)); 2.9 nM in the assay on ACHN. Also, the half-inhibitory concentration (IC50) was 37.4 nM in the assay on LU99 (MTAP (-/-)); 41.6 nM in the assay on NCI-H647 (MTAP (-/-)); 11.6 nM with DOHH-2 (MTAP (-/-)); 24.1 nM with PSN-1 (MTAP (-/-)); 2300 nM with Calu-1 (MTAP Wild type); 1590 nM in the assay with SU-DHL-10 (MTAP Wild type). The molecule also had an IC50 in the assay on Aspc-1 (MTAP Wild type) of more than 10000 nM.

As a reminder, the IC50 is the concentration that gives 50% inhibition. A high value points to weaker potency.
